2 compounds from US8716478B2, “Boron-containing small molecules” (Anacor Pharmaceuticals, Inc., priority 2010, dated 2014) can be followed below.

For one series, the system named is Brugia malayi. Description: Brugia malayi in vitro assay, adult female worms. The settings on record: 50 uM. As to the method: Adult female worms are shipped from TRS Labs Inc. (Nonglak Supakorndej, Lab Director, 295 Research Dr., Athens, Ga. 30605; 706-549-0764) via Fed Ex. Individual worms are shipped in 2 mls vials with RPMI on Mondays and arrive at the […] Center lab on Tuesday mornings. Individual worms are poured into each well (24-well tissue culture plates) to avoid handling worms since they are very delicate and easily broken. Transport media is removed and replaced with 0.5 mls of RPMI-1640 (25 mM HEPES, 2 g/L NaHCO3, Antibiotic/Antimycotic, 5% HI FBS). Worms are maintained in a 37° C. 5% CO2 incubator. Compounds are added directly to each duplicate well (5 ul of 5 mM for a final concentration of 50 uM). DMSO (5 ul) is used as a negative control and Ivermectin (Sigma) is used as a positive control at 100 uM/well and 20 uM/well. Adult filarial nematodes can shed/give birth to microfilarial worms (mf) during the course of the assay. Wells were reviewed for the presence of mf, and the viability of mf, by visual observation of the well on the last day of observation (Day 7). Plates are examined once a day for 4-7 days. […] If changes are observed, worms are more closely examined under a dissecting microscope.

The subject of the next series is TNF-α. The experiment in a line: In vivo TNF-α release in LPS treated mice. Further details: species or system Swiss Webster mice. As to the method:
In vivo TNF-α release was measured in Swiss Webster mice, 10/group. Animals were dosed via oral gavage with drug 1% CMC suspension. Thirty minutes later LPS, 1.5 mg/kg was administered by intraperitoneal injection. Ninety minutes later animals were sacrificed, blood was collected by exsangination and serum prepared for analysis. TNF-α concentration was assessed by ELISA, non-drug treated animals had TNF-α levels 1000-3000 pg/mL. 6-(1-Hydroxy-1,3-dihydrobenzo[c][1,2]oxaborol-5-yloxy)-2-(2-isopropoxyethoxy)nicotinonitrile (D140) and 6-(1-hydroxy-1,3-dihydrobenzo[c][1,2]oxaborol-5-yloxy)-2-(4-oxopentyloxy)nicotinonitrile (D141) are disclosed in U.S. patent application Ser. No. 12/399,015, filed Mar. 5, 2009.

The next series relates to human PDE4 enzyme. Description: Phosphodiesterase 4 (PDE4) inhibition, semi-purified enzyme from human U937 cells. In kind it is biochemical. The settings on record: 1 μM cAMP, 20 minutes at 25° C.; read-out: PDE4 IC50.
Series [1] deals with TNF-α in peripheral blood mononuclear cells (PBMCs). The experiment in a line: TNF-α inhibition in LPS-stimulated peripheral blood mononuclear cells. In kind it is cell-based. The settings on record: PBMC; PBMCs, LPS 1 μg/mL for 24 h; read-out: Proinflammatory TNF-α IC50. Put shortly: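 Pooled human PBMCs (10-20 donors), 5×10^5 cells/well in RPMI with 10% FCS, <2% DMSO final, stimulated with LPS at 1 μg/mL for 24 h with compound. TNF-α in supernatant measured by cytometric bead array; IC50 by four-parameter logistic fit.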

Series [2] can be described thus: Pharmacokinetics and oral bioavailability after IV and PO dosing. In kind it is in vivo, female CD-1 mice. The settings on record: plasma. As to the method: The objective of this study was to evaluate the pharmacokinetics and oral bioavailability of PDE4 inhibitors following intravenous (IV) administration and oral (PO) doses in female CD-1 mice.
After dosing, blood samples were collected through 24 h, twice from each animal at specific times (3 mice/time point), into microcentrifuge tubes containing K2EDTA (anticoagulant), stored on wet ice and processed for plasma. The plasma samples were analyzed for concentrations of parent compound by LC/MS/MS using an internal standard/peak area method. Pharmacokinetic analysis of the mean plasma concentration-time profiles following IV and PO administration was performed.
[…] Dosing solutions for intravenous administration were prepared in 55% PEG300/25% PG/20% water. Oral dosing used a suspension prepared in 1% CMC in water with 0.1% Tween 80.
After dosing, blood samples were collected through 24 h, twice from each animal via retro-orbital bleed (˜0.1 mL, 1st time point) or cardiac puncture (˜0.6 mL, 2nd time point) at specific times (3 mice/time point), into microcentrifuge tubes containing K2EDTA (anticoagulant) and stored on wet ice prior to processing.
Plasma was prepared by centrifugation of blood samples for 6 min at approximately 2000×g or 6000 rpm at 4° C. All processed plasma samples (˜50 μL and 300 μL) were transferred to analysis tubes, placed on dry ice immediately and later stored at −80° C. until analysis for concentrations of experimental compound by LC/MS/MS.
Mouse IV clearance, Mouse Oral AUC and Oral Bioavailability are provided below. 6-(1-Hydroxy-1,3-dihydrobenzo[c][1,2]oxaborol-5-yloxy)-2-(2-isopropoxyethoxy)nicotinonitrile (D140) and 6-(1-hydroxy-1,3-dihydrobenzo[c][1,2]oxaborol-5-yloxy)-2-(4-oxopentyloxy)nicotinonitrile (D141) are disclosed in U.S. patent application Ser. No. 12/399,015, filed Mar. 5, 2009.

For the compound `CC(C)OCCOc1nc(Oc2ccc3c(c2)COB3O)ccc1C#N` [6-(1-hydroxy-1,3-dihydrobenzo[c][1,2]oxaborol-5-yloxy)-2-(4-isopropoxy-ethoxy)nicotinonitrile], the “worm activity score / phenotype, Day 3” value with Brugia malayi (trial two) is 4 (highly active (controls)).

For the compound `CC(=O)CCCOc1nc(Oc2ccc3c(c2)COB3O)c(Cl)cc1C#N` [Compound D231, 5-Chloro-6-(1-hydroxy-1,3-dihydrobenzo[c][1,2]oxaborol-5-yloxy)-2-(4-oxopentyloxy)nicotinonitrile], the “% Inhibition of TNFa Blood Levels in LPS Treated Mice” value with TNF-α (Oral Dose 0.03 mg/kg) was found to be 0%; with TNF-α (Oral Dose 0.1 mg/kg), 22%; in the series on TNF-α (Oral Dose 0.3 mg/kg), 33.6%; in the series on TNF-α (Oral Dose 1 mg/kg) it was 69.5%; with TNF-α (Oral Dose 1.5 mg/kg), 58%; in the series with TNF-α (Oral Dose 3 mg/kg) it was 75.6%. The “% Inhibition of TNFa Blood Levels in LPS Treated Mice” value in the series on TNF-α (Oral Dose 5 mg/kg) is on record as 85.5%; in the series with TNF-α (Oral Dose 10 mg/kg), 85.6%; with TNF-α (Oral Dose 15 mg/kg), 81.3%; in the series on TNF-α (Oral Dose 30 mg/kg) it was 97.3%. The results for the half-inhibitory concentration (IC50) (in the series on human PDE4 enzyme; in series [1]) were 0.8 nM and 0.44 nM, respectively. For the same compound, in series [2] (female, CD-1, mouse, po), the bioavailability worked out at 96%. Further, the AUC in series [2] (female, CD-1, mouse, 10 mg/kg oral suspension dose) stood at 8500 ng·h/mL. The compound also had a clearance in series [2] (mouse, 5 mg/kg, female CD-1 mice, intravenous) of 25 mL/min/kg. The “worm activity score / phenotype, Day 3” value in the series on Brugia malayi (trial one) and in the series with Brugia malayi (trial two) was 2 to 3 throughout.

What is called IC50 is the concentration needed to halve the response being measured. By bioavailability is commonly meant the share of a dose that reaches the circulation, judged against a reference dose that is usually intravenous. As usually defined, the AUC is concentration integrated over time. Read a high AUC as more exposure.
